In patent US4992535A, “Methods of making novel R and S diastereomers of N^6 -[(2-hydroxypropyl)aryl]adenosines” (G. D. Searle & Co., priority 1988, dated 1991):
Entries after “also recorded” stand apart in the source; their conditions may differ.

Experiments:
hypertensive models = details: Federation Proceedings 44:879 & 1643, 1985; cited from earlier work
[1] = test system: spontaneously hypertensive rats (SHR); assay: Mean arterial pressure and heart rate in conscious spontaneously hypertensive rats (IV and intragastric); format: in vivo, rat; details: for Maximum decrease at 20 mg/kg ig, HR / Maximum decrease at 20 mg/kg ig, MAP: day 2 of oral administration; for ED (100 b/min decrease) / ED (40 mmHg decrease): Rattus norvegicus, IV; for ED (100 b/min decrease): read-out: IV dose to decrease HR by 100 b/min; for ED (40 mmHg decrease): read-out: IV dose to decrease MAP by 40 mmHg
Procedure: The effects of compounds I and II were tested intravenously or intragastrically in conscious spontaneously hypertensive rats (SHR). The rats were anesthetized with ether and the left carotid artery and right jugular vein were cannulated with polyethylene tubing. The rats were allowed three to five hours recovery from anesthesia for the I.V. studies and 12 to 18 hours for the oral studies. Mean arterial pressure (MAP, in mm/Hg) and heart rate (HR, beats/min.) were measured from the artery; intravenous administration of compounds was performed by injection into the vein. Oral administration was performed by gastric intubation. Compounds were dissolved in DMSO for I.V. studies and injected in volumes of […] or less (N=5 per compound). Doses were 3 to 1,000 mg/kg. Compounds were dissolved in polyethylene glycol for oral administration and injected in volumes of 1 ml/kg at dose of 20 mg/kg/day for three days (N=3 to 6 per compound).
The resting MAP and HR for the SHR ranged between 160-200 mm Hg and 330/350 b/min., respectively.

mice [2] = assay: Behavioral signs of toxicity in mice; format: in vivo; design: key to Motor depression / Ptosis / Respiratory depression / Flaccidity / Loss of righting reflex: +: toxic symptom observed; +*: * = 2/7; +^#: ^# = 5/7; details: 75 mg/kg IP
Procedure: (§1) Adenosine analogs tend to produce sedation and central nervous system depression which have prevented their therapeutic utility. The compounds of the invention, at doses which lower arterial pressure in the SHR, show no evidence of CNS depression. The ataxia produced by compounds of the present invention was measured in mice by injecting the compounds IP at doses of 32, 56, or 75 mg/kg in an aqueous suspension, n=7 per dose. The mice had previously been trained to remain on a rotating rod. After dosing, the percent of mice unable to remain on the rotating rod was determined. […] The mice were also observed at various time intervals for behavioral signs of toxicity.

adenosine A1 receptor = target: T1, adenosine A1 receptor (Rattus norvegicus, UniProt P25099); assay: Adenosine A1 receptor binding, inhibition of HPIA binding to crude plasma membranes
T1 construct: Crude plasma membranes were prepared; from tissue; host or cells: crude plasma membranes
T1 sequence (P25099 1-326): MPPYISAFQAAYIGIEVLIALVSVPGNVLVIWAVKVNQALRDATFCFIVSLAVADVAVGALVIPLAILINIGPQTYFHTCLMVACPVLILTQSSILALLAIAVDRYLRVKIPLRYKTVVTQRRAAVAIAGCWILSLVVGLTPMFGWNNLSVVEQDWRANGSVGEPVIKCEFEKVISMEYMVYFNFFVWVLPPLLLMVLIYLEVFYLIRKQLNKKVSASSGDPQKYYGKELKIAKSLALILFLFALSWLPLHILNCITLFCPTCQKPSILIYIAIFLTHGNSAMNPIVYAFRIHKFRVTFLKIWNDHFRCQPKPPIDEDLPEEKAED
Procedure: The binding potency of compound I, II and III to the adenosine Al receptor was measured according to the method of Schwabe, U. et al., Naunyn Schmeid. Arch. Pharmacol. 321:84, 1982. Crude plasma membranes were prepared and varying concentrations of compounds I, II or III were added to the membrane preparation in the presence of ^125 -N-p hydroxyphenyl isopropyladenosine (HPIA). The affinity of the compounds for the adenosine Al receptor was estimated from the concentrations necessary to inhibit the binding of HPIA by 50% (IC50).

mice [3] = assay: Ataxia, rotating rod, in mice; format: in vivo, mouse; details: for Percent ataxic, 0.5 hour / Percent ataxic, 3 hour: 54 ± 12 mg/kg ip (pooled 32, 56, 75 mg/kg); for ataxia / motor toxicity compared to compound I, in words: ip, 0.5 or 3 hours
Procedure: as §1

[4] = test system: PRA in Sprague Dawley rats with renal arteries ligated; assay: Plasma renin activity (PRA) in the bilateral renal artery ligated rat; format: in vivo; details: 1 mg/kg IV; for prevention of PRA increase, in words: 30 and 60 minutes; for Change in PRA at 30 minutes: 30 minutes after dosing; for Change in PRA at 60 minutes: 60 minutes after dosing
Procedure: Adenosine Al receptor stimulation will inhibit the release of renin from the kidney. A stimulus for the release of renin is renal ischemia. The ability of the compounds of the present invention to prevent an increase in PRA following renal ischemia was tested in rats with both renal arteries ligated. Sprague Dawley rats were anesthetized with ether and the renal arteries were ligated. Three to five hours after anesthesia, arterial blood was sampled and compounds I, II or III were administered in polyethylene glycol at 1 mg/kg I.V. At 30 and 60 minutes after administration, arterial blood was sampled for PRA measurement by the method of Sealy, J. E. et al., Cardiovasc. Med. 2:1079, 1977.

[5] = test system: adenosine A1 receptor in the granular juxtaglomerular cells of the kidney; details: Federation Proceedings 44:879 & 1643, 1985; cited from earlier work
central nervous system = assay: CNS toxicity / CNS depression, general statements; format: in vivo; details: summary statement

SMILES	Maximum decrease at 20 mg/kg ig, HR [1] [b/min]	Maximum decrease at 20 mg/kg ig, MAP [1] [mmHg]	ED (100 b/min decrease) [1] [mg/kg]	ED (40 mmHg decrease) [1] [mg/kg]	behavioral toxicity in words (mice [2]; 18-20 hours)	Flaccidity (mice [2]; 18-20 hr)	Motor depression (mice [2]; 18-20 hr)	Ptosis (mice [2]; 18-20 hr)	Motor depression (mice [2]; 0.5 hr)	Ptosis (mice [2]; 0.5 hr)	Respiratory depression (mice [2]; 0.5 hr)	Motor depression (mice [2]; 3 hr)	Ptosis (mice [2]; 3 hr)	Respiratory depression (mice [2]; 3 hr)	IC50 (adenosine A1 receptor) [nM]	Percent ataxic, 0.5 hour (mice [3]) [%]	Percent ataxic, 3 hour (mice [3]) [%]	prevention of PRA increase, in words [4]	Change in PRA at 30 minutes [4] [ngAI/ml/hr]	Change in PRA at 60 minutes [4] [ngAI/ml/hr]	further results
OC[C@H]1O[C@@H](n2cnc3c(NCC(O)COc4cccc5ccccc45)ncnc32)[C@H](O)[C@@H]1O (mixture of isomers) [Compound I, N(6) [2 hydroxy-3-(1 naphthyloxy)propyl]-adenosine]	214 ± 14	50 ± 13	0.037 ± 0.0013	0.052 ± 0.0013	still producing several of the toxic symptoms	+*	+	+	+	+	+	+	+	+	1.2	33 ± 10	95 ± 5	prevented to the same extent	-2.9 ± 5.0	-9.4 ± 7.4	arterial blood pressure and heart rate, in words (hypertensive models): reducing arterial blood pressure and heart rate; Respiratory depression (mice [2]; 18-20 hr): +; behavioral toxicity in words (mice [2]; 3 hours): also produced flaccidity and loss of writhing reflex; Flaccidity (mice [2]; 3 hr): +; Loss of righting reflex (mice [2]; 3 hr): +; binding to the adenosine A1 receptor, in words [5]: binds to the adenosine Al receptor; inhibition of renin release into the plasma, in words [5]: inhibit release of renin into the plasma
OC[C@H]1O[C@@H](n2cnc3c(NC[C@@H](O)COc4cccc5ccccc45)ncnc32)[C@H](O)[C@@H]1O [II, N-[2R-hydroxy-3-(1-naphthalenyloxy)propyl]-adenosine]	202 ± 24	62 ± 7	0.036 ± 0.0012	0.047 ± 0.0012	still producing several of the toxic symptoms	+	+	+	+	+	+	+	+	+	1.2	14 ± 8	48 ± 21	prevented to the same extent	-11.7 ± 3.5	-13.8 ± 4.9	central nervous system toxicity, comparison in words (central nervous system): less central nervous system toxicity than the S diastereomer; also recorded: less central nervous system toxicity than the racemic mixture; Respiratory depression (mice [2]; 18-20 hr): +; behavioral toxicity in words (mice [2]; 24 hours): still producing toxic symptoms; Motor depression (mice [2]; 24 hr): +^#; Ptosis (mice [2]; 24 hr): +^#; Respiratory depression (mice [2]; 24 hr): ^#; ataxia / motor toxicity compared to compound I, in words (mice [3]): less motor toxicity than compound I; also recorded: less toxic than compound I with regard to ataxia; also recorded: less ataxia at 0.5 or 3 hours as compared to compound I
OC[C@H]1O[C@@H](n2cnc3c(NC[C@H](O)COc4cccc5ccccc45)ncnc32)[C@H](O)[C@@H]1O [III, N-[2S-hydroxy-3[1-naphthalenyloxy)propyl]-adenosine]	177 ± 19	50 ± 14	0.031 ± 0.0014	0.033 ± 0.0012	no toxicity was observed				+	+	+	+	+	+	1.2	14 ± 0	57 ± 8	prevented to the same extent	-6.6 ± 4.0	-6.3 ± 3.9	behavioral toxicity, overall comparison in words (mice [2]; mice): substantially less toxic than compounds I and II; also recorded: less CNS toxic than compound II with regard to behavioral toxicity; ataxia / motor toxicity compared to compound I, in words (mice [3]): less motor toxicity than compound I; also recorded: less ataxia at 0.5 or 3 hours as compared to compound I
